Test results reported in patent publication US7182884B2, “Bio-liquid crystal polymer and shaped material using same” (Toyoda Gosei Co., Ltd., priority 2003, dated 2007).

Assay: solubility of the bio-liquid crystal polymer in solvents
Type: physicochemical
Set-up: key: +a: soluble only when heated; +: dissolved; −: not dissolved

With `O=C(O)/C=C/c1ccc(O)cc1` [4HCA, 4-hydroxycinnamic acid] the solubility (solvent DMF) was “+”, the solubility (solvent DMSO) was “+” and the solubility (solvent NMP) was “+”. The solubility (solvent THF) was “+”, the solubility (solvent acetone) was “+” and the solubility (solvent acetonitrile) was “+”. For the same compound, the solubility (solvent chloroform) was “−”, the solubility (solvent ethanol) was “+” and the solubility (solvent hexane) was “−”. The solubility (solvent methanol) was “+”, the solubility (solvent pentafluorophenol) was “+” and the solubility (solvent toluene) was “−”. The solubility (solvent water) was “^+a”.
